The source of these data is patent publication US20220402867A1, “SULFO-SUBSTITUTED BIARYL COMPOUND OR SALT THEREOF, PREPARATION METHOD THEREFOR, AND USE THEREOF” (Shanghai Litedd Co., Ltd., priority 2019, published 2022).

For data set [1], the target named is T1, RORγt (RORγ-LBD chimeric receptor) (Homo sapiens, UniProt P51449).
T1 construct: host or cells: HEK293T
T1 sequence (P51449 269-508 limits assumed): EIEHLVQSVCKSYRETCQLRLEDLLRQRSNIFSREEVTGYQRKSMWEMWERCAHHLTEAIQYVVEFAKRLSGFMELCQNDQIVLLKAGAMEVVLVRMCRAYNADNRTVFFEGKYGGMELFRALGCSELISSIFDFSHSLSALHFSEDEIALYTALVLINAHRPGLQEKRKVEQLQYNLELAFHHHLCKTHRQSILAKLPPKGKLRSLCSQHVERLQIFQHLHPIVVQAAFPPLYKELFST
As to the kind of experiment: Luciferase reporter gene assay of RORγt agonistic activity in HEK293T cells. The data set is classed as cell-based. Further details: Emax: dose or concentration left out as unconfirmed. As to conditions: for EC50: HEK293T, GAL4 luciferase reporter, read-out: EC50; for Emax: HEK-293T. The essentials: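 EC50 derived from % activity (relative to positive control and vehicle) versus log concentration, using luciferase luminescence in transfected HEK293T cells. The cells carried a RORγ-LBD/GAL4 chimera plus a GAL4-promoter reporter; compounds were 3-fold serially diluted, 10 points from a 10 mM DMSO stock.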
Background: In a reporter assay the amount or activity of a reporter protein is the signal.

Data set [2] can be described thus: Metabolic stability in mouse liver microsomes. The data set is classed as in vitro ADME, CD-1 mice. The settings on record: for half-life: CD-1; for microsomal CLint: CD-1, 0.5 mg protein/mL. The essentials: (§1)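 Compound incubated at 37 °C with 0.5 mg protein/mL liver microsomes plus cofactors in PBS, sampled at 0–60 min, quenched with cold acetonitrile and quantified by HPLC-MS/MS (n=3). Half-life and Clint (μL/min/mg) come from the slope of ln(% remaining) versus time.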
(In general: Liver microsomes are vesicles of endoplasmic reticulum, rich in cytochrome P450 enzymes.)

Data set [3] is described as follows: Metabolic stability in human liver microsomes. The data set is classed as in vitro ADME. As to conditions: for microsomal CLint: 0.5 mg protein/mL. An outline of the steps:
as §1

Data set [4] has as its system human PBMC (Th17 cells). Put plainly: Th17 differentiation and IL-17 secretion in human PBMC. It counts as cell-based. The settings on record: IL-17 ELISA after 48 hours; for Emax: maximum activation rate. As for the experimental part: Test procedure: PBMC cells were first thawed and plated, and then stimulated with stimulating factors (anti-hCD28: 5 μg/mL; rhTGF-β1: 5 ng/mL; rhIL-6: 20 ng/mL; rhIL-23: 10 ng/Ml) to differentiate to Th17, while adding different concentrations of compounds. All test compounds were serially diluted at 3-fold dilution with DMSO, with 8 serial dilutions starting from the maximum concentration 3 μM. The supermatants were collected after 48 hours for IL-17 ELISA detection, and compared with the solvent group, to determine the activation rate of the compounds on Th17 cells to secrete IL-17. EC50 values were fitted with Graphad8.0, and the TOP values fitted by the software was Emax %.
(In general: ELISA stands for enzyme-linked immunosorbent assay.)

Data set [5] addresses T2, GST-RORγ LBD (263-509) (Homo sapiens, UniProt P51449).
T2 construct: GST-RORγ LBD ((263-509) (produced at ChemPartner))
T2 sequence (P51449 263-509): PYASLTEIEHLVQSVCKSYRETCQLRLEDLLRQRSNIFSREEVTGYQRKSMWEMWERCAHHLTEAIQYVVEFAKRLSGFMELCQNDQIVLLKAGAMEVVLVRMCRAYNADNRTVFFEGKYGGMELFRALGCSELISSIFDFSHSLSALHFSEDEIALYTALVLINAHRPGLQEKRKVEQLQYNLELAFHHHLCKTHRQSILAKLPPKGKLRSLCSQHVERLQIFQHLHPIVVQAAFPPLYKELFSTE
Put plainly: TR-FRET assay of agonistic activity on RORγ receptor. The data set is classed as biochemical. The settings on record: for EC50: TR-FRET, GST-RORγ LBD with Biotin-SRC1. As for the experimental part: A time-resolved fluorescence resonance energy transfer (TR-FRET) assay was used for the compounds of the present disclosure, to determine the agonistic activity of the compounds on the RORγ protein receptor. The agonistic activity is expressed by the concentration for 50% of maximal effect (EC50). The experiment was performed basically with reference to the methods described in ONCOIMMUNOLOGY, 2016, VOL. 5, NO. 12, e1254854.
1. Preparation of RORγ Basal Buffer
A 100 mL basal buffer was prepared, mixed homogeneously and stored for use;
The compounds of the examples shown in the table below were prepared into solutions with DMSO as the solvent, serially diluted at 3-fold dilution to 10 concentrations starting from 10 mM, and added to the corresponding wells of a 384-well plate with each concentration of each compound in duplicate;
a. A 75 nM solution of GST-RORγ LBD ((263-509) (produced at ChemPartner)) and a 4 nM solution of Biotin-SRC1 (Glsbiochem) were prepared with the above basal buffer. The two solutions were 1:1 mixed evenly, and 10 μL of the mixed solution was added into each well of the above 384-well plate. The plate was immediately centrifugated at 1000 rpm for 10 seconds; b. A 1 nM solution of Anti-GST Eu (Cisbio, #61GSTKLA) and a 50 nM solution of SA-APC (Cisbio, […]) were prepared with the above basal buffer. The two solutions were 1:1 mixed evenly, and 10 μL of the mixed solution was added into each well of the above 384-well plate. The plate was immediately centrifugated at 1000 rpm for 10 seconds; c. The resulting 384-well plate was incubated at room temperature for 15 minutes. Data were read on an Envision microplate reader, EC50 values and E max % were calculated.
a. Readings were taken at 665 nm and 615 nm wavelengths respectively on the Envision Microplate Reader, and the ratios between them were normalized. b. Calculation was carried out with the following equation: […]
wherein X is the reading of compounds, Min is the reading of the blank solution, and Max is the reading of 10 μM SRC. c. The concentration-response curve data were fitted by a four-parameter logistic nonlinear regression model, and Emax was the TOP value of the fitted curve.

The mark [6] stands for this setting: maximum activation rate, TOP of fitted curve.

As a reminder, the EC50 is the concentration that produces a half-maximal response. A word on the Emax: it is the greatest response seen or fitted, relative to the assay's reference. The half-life is the time needed for the level to fall by half in the phase considered. As a reminder, the microsomal CLint is a measure of how fast metabolising enzymes remove a compound, apart from limits set by blood flow. For `CCS(=O)(=O)c1ccc(C(COC)C(=O)Nc2cc(Cl)c(-c3ccc(S(=O)(=O)C4CC4)cc3)c(Cl)c2)cc1` (single isomer, unassigned) [Example 40, (S)—N-(2,6-dichloro-4′-(cyclopropylsulfonyl)-[1,1′-biphenyl]-4-yl)-2-(4-(ethylsulfonyl)phenyl)-3-methoxypropionamide or (R)—N-(2,6-dichloro-4′-(cyclopropylsulfonyl)-[1,1′-biphenyl]-4-yl)-2-(4-(ethylsulfonyl)phenyl)-3-methoxypropionamide], in data set [1], the EC50 came to 0.093 µM and the Emax amounted to 77.5%. Further, in data set [2], the “% Remaining (T = 60 min)” value came out at 71.8%, the half-life was 1.95 h and the microsomal CLint was 11.8 µL/min/mg. Further, in data set [3], the half-life turned out to be 2.4 h, the intrinsic metabolic clearance (microsomal CLint) was determined as 9.6 µL/min/mg and the “% Remaining (T = 60 min)” value was found to be 71.1%. In data set [4], this compound yielded an EC50 of 0.0258 µM and an Emax of 224%. Also, the EC50 in data set [5] is 0.0099 µM. In data set [5] (setting [6]), this compound registered an Emax % of 199.3%.

As for `CCS(=O)(=O)c1ccc(CC(=O)Nc2cc(Cl)c(-c3ccc(S(=O)(=O)C4CC4)cc3)c(Cl)c2)cc1` [Example 6], the EC50 came to 0.013 µM in data set [1], 0.0492 µM in data set [4] and 0.0037 µM in data set [5]. Besides, the maximum response (Emax) is 42.1% in data set [1], 254% in data set [4] and 171% in data set [5] (setting [6]). Moreover, the “% Remaining (T = 60 min)” value in data set [2] stood at 78.60%; in data set [3], 82%. Besides, the half-life in data set [2] and in data set [3] was more than 2.42 h throughout. The microsomal CLint in data set [2] and in data set [3] was less than 9.6 µL/min/mg throughout.

With `CCS(=O)(=O)c1ccc(C(CO)C(=O)Nc2cc(Cl)c(-c3ccc(S(=O)(=O)C4CC4)cc3)c(Cl)c2)cc1` (single isomer, unassigned) [Example 38, (S)—N-(2,6-dichloro-4′-(cyclopropylsulfonyl)-[1,1′-biphenyl]-4-yl)-2-(4-(ethylsulfonyl)phenyl)-3-hydroxypropionamide or (R)—N-(2,6-dichloro-4′-(cyclopropylsulfonyl)-[1,1′-biphenyl]-4-yl)-2-(4-(ethylsulfonyl)phenyl)-3-hydroxypropionamide], the EC50 in data set [1] was found to be 0.124 µM; in data set [4], 0.0228 µM; in data set [5], 0.0059 µM. The Emax is 103% in data set [1], 179% in data set [4] and 190% in data set [5] (setting [6]). For the same compound, the figures for the “% Remaining (T = 60 min)” value in data set [2] and in data set [3] were 70.7% and 77.2%, respectively. Also, the half-life in data set [2] is 1.79 h; in data set [3], more than 2.42 h. Besides, the figures for the microsomal CLint in data set [2] and in data set [3] were 12.9 µL/min/mg and less than 9.6 µL/min/mg, respectively.

Take `COCC(C(=O)Nc1cc(Cl)c(-c2ccc(S(=O)(=O)C3CC3)cc2)c(Cl)c1)c1ccc(S(C)(=O)=O)cc1` (single isomer, unassigned) [Example 34, (S)—N-(2,6-dichloro-4′-(cyclopropylsulfonyl)-[1,1′-biphenyl]-4-yl)-3-methoxy-2-(4-(methylsulfonyl)phenyl)propanamide or (R)—N-(2,6-dichloro-4′-(cyclopropylsulfonyl)-[1,1′-biphenyl]-4-yl)-3-methoxy-2-(4-(methylsulfonyl)phenyl)propanamide]: the EC50 was 0.067 µM in data set [1], 0.0572 µM in data set [4] and 0.0051 µM in data set [5]. Besides, the Emax in data set [1] stood at 70.7%; in data set [4], 195%; in data set [5] (setting [6]) it was 191%. Moreover, the results for the “% Remaining (T = 60 min)” value in data set [2] and in data set [3] were 74.5% and 62.4%, respectively. The results for the half-life in data set [2] and in data set [3] were more than 2.42 h and 1.48 h, respectively. In addition, the microsomal CLint in data set [2] was less than 9.6 µL/min/mg; in data set [3], 15.6 µL/min/mg.

Consider `CS(=O)(=O)c1ccc(C(CO)C(=O)Nc2cc(Cl)c(-c3ccc(S(=O)(=O)C4CC4)cc3)c(Cl)c2)cc1` (single isomer, unassigned) [Example 36, (S)—N-(2,6-Dichloro-4′-(cyclopropylsulfonyl)-[1,1′-biphenyl]-4-yl)-2-(4-(methylsulfonyl)phenyl)-3-hydroxypropionamide or (R)—N-(2,6-dichloro-4′-(cyclopropylsulfonyl)-[1,1′-biphenyl]-4-yl)-2-(4-(methylsulfonyl)phenyl)-3-hydroxypropionamide], for which the values for the EC50 in data set [1], in data set [4] and in data set [5] were 0.054 µM, 0.0362 µM and 0.0043 µM, respectively. Further, the figures for the Emax in data set [1], in data set [4] and in data set [5] (setting [6]) were 71.3%, 169% and 200%, respectively. In addition, the “% Remaining (T = 60 min)” value came out at 83.9% in data set [2] and 62.3% in data set [3]. In addition, the half-life was more than 2.42 h in data set [2] and 1.69 h in data set [3]. Also, the microsomal CLint in data set [2] was less than 9.6 µL/min/mg; in data set [3] it was 13.7 µL/min/mg.
